The text below walks through data of doi:10.1101/2025.07.15.665002v1 (biorxiv, 2025).

What is called remaining activity is the signal under treatment as a percentage of the control signal. By Kd is commonly meant the concentration at which binding is half-saturated. Low readings indicate a tighter complex, high ones a looser complex. By inhibition is commonly meant how much of the control response was suppressed.

Assay [1] deals with T1, hMDH2 (Homo sapiens, UniProt P40926).
T1 sequence (P40926 25-338): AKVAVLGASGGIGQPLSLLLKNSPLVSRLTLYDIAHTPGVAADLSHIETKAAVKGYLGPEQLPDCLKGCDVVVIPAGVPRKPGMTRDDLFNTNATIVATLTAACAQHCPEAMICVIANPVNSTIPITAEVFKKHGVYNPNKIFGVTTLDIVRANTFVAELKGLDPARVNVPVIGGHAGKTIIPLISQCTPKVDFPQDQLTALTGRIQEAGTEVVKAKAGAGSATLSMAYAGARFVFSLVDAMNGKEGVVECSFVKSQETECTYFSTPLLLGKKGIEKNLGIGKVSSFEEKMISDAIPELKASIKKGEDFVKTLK
As to the kind of experiment: NADH oxidation at […] nm. The assay is classed as biochemical. The conditions noted are these: read-out: % of control activity remaining at 10.0 mM.

Assay [2] concerns the target T2, hMDH2 (Homo sapiens, UniProt P40926, H131W).
T2 sequence (P40926 25-338 H131W): T1 sequence (P40926 25-338) with H107W
The class given is binding.

For assay [3], the target named is T2, hMDH2. The assay is classed as binding. This is another data set of the same source.
In assay [4] the target is T1, hMDH2. The assay is described as follows: NADH oxidation at […] nm. The assay is classed as biochemical. The note with it: read-out: % inhibition at 10.0 mM.

Substitutions are numbered along the chain they refer to. Where two headings read alike, the source gives them in different places.

As to `Nc1ncnc2c1ncn2[C@@H]1O[C@H](COP(=O)(O)OP(=O)(O)O)[C@@H](O)[C@H]1O` [ADP], the remaining activity at 10000 µM on hMDH2 [1] is 18.7%. Moreover, the Kd at hMDH2 [2] worked out at 3.77 ± 0.27 mM.
On to `Nc1ncnc2c1ncn2[C@@H]1O[C@H](COP(=O)(O)OP(=O)(O)OP(=O)(O)O)[C@@H](O)[C@H]1O` [ATP], for which the remaining activity at 10000 µM on hMDH2 [1] turned out to be 29.1%. At hMDH2 [2], this compound came in with a Kd of 9.63 ± 0.68 mM.
The corresponding values for `NC(=O)c1ccc[n+]([C@@H]2O[C@H](COP(=O)(O)OP(=O)(O)OC[C@H]3O[C@@H](n4cnc5c(N)ncnc54)[C@H](O)[C@@H]3O)[C@@H](O)[C@H]2O)c1` [NAD^+] are 13.2% and 1.02 ± 0.039 mM.
Regarding `O=C(O)CC(O)(CC(=O)O)C(=O)O` [citrate], the remaining activity at 10000 µM on hMDH2 [1] worked out at 31%.
In the case of `O=C(O)CCC(=O)C(=O)O` [α-ketoglutarate], on hMDH2 [3], the Kd was determined as 10.4 ± 1.45 mM. The inhibition at 10000 µM on hMDH2 [4] turned out to be 51.7%.
